≈ marks a conversion by molar mass, not a printed value. Read-outs that look alike come from different tables or passages of the source.
Experiments:
[1] = system: Escherichia coli LA 290 R64; test: Minimum inhibitory concentration, serial dilution on nutrient agar; format: cell-based; conditions: LA290R64, 18 h, read-out: Minimum Inhibitory Concentrations
Experimental: (§1) The minimum inhibitory concentrations (mcg/ml.) of 1-N-(L-4-amino-2-hydroxybutyryl)-kanamycin C (abbreviated as AHB-KC), 1-N-(L-4-amino-2-hydroxybutyryl)-3'-deoxykanamycin C (abbreviated as AHB-DKC) and 1-N-(L-4-amino-2-hydroxybutyryl)-3',4'-dideoxykanamycin C (abbreviated as AHB-DDKC) against various microorganisms were determined according to serial dilution method on nutrient agar medium at 37° C., the estimation being effected after 18 hours incubation. For comparison, the minimum inhibitory concentrations of 1-N-(L-4-amino-2-hydroxybutyryl)-kanamycin A (amikacin) was also determined in the same manner as described above.

[2] = system: Mycobacterium smegmatis ATCC 607; test: as above; format: cell-based; conditions: Mycolicibacterium smegmatis, ATCC607, 37° C., 18 hours, read-out: Minimum Inhibitory Concentrations
Experimental: as §1

[3] = system: Pseudomonas aeruginosa A3; test: as above; format: cell-based; conditions: read-out: Minimum Inhibitory Concentrations
Experimental: as §1

[4] = system: Pseudomonas aeruginosa GN 315; test: as above; format: cell-based; conditions: GN315, 37° C., 18 hours, read-out: Minimum Inhibitory Concentrations
Experimental: as §1

[5] = system: Pseudomonas aeruginosa 99; test: as above; format: cell-based; conditions: 37° C., 18 hours, read-out: Minimum Inhibitory Concentrations
Experimental: as §1

[6] = system: Escherichia coli LA 290 R56; test: as above; format: cell-based; conditions: LA290R56, 18 h, read-out: Minimum Inhibitory Concentrations
Experimental: as §1

[7] = system: Escherichia coli K-12 ML 1629; test: as above; format: cell-based; conditions: K12ML1629, 37° C., 18 hours, read-out: Minimum Inhibitory Concentrations
Experimental: as §1

[8] = system: Escherichia coli K-12 ML 1630; test: as above; format: cell-based; conditions: K12ML1630, 37° C., 18 hours, read-out: Minimum Inhibitory Concentrations
Experimental: as §1

[9] = system: Pseudomonas aeruginosa No. 12; test: as above; format: cell-based; conditions: read-out: Minimum Inhibitory Concentrations
Experimental: as §1

[10] = system: Klebsiella pneumoniae 22 No. 3038; test: as above; format: cell-based; conditions: read-out: Minimum Inhibitory Concentrations
Experimental: as §1

[11] = system: Pseudomonas aeruginosa TI-13; test: as above; format: cell-based; conditions: read-out: Minimum Inhibitory Concentrations
Experimental: as §1

[12] = system: Escherichia coli K-12 ML 1410 R81; test: as above; format: cell-based; conditions: 18 h, read-out: Minimum Inhibitory Concentrations
Experimental: as §1

[13] = system: Escherichia coli K-12 ML 1410; test: as above; format: cell-based; conditions: K12ML1410, 37° C., 18 hours, read-out: Minimum Inhibitory Concentrations
Experimental: as §1

[14] = system: Escherichia coli JR 66/W677; test: as above; format: cell-based; conditions: read-out: Minimum Inhibitory Concentrations
Experimental: as §1

[15] = system: Staphylococcus aureus FDA 209P; test: as above; format: cell-based; conditions: FDA209P, 37° C., 18 hours, read-out: Minimum Inhibitory Concentrations
Experimental: as §1

[16] = system: Escherichia coli LA 290 R55; test: as above; format: cell-based; conditions: LA290R55, 18 h, read-out: Minimum Inhibitory Concentrations
Experimental: as §1

[17] = system: Pseudomonas aeruginosa H 11; test: as above; format: cell-based; conditions: H11, 37° C., 18 hours, read-out: Minimum Inhibitory Concentrations
Experimental: as §1

Escherichia coli W 677 = test: as above; format: cell-based; conditions: W677, 37° C., 18 hours, read-out: Minimum Inhibitory Concentrations
Experimental: as §1

[18] = system: Klebsiella pneumoniae PCI 602; test: as above; format: cell-based; conditions: PCI602, 37° C., 18 hours, read-out: Minimum Inhibitory Concentrations
Experimental: as §1

Escherichia coli NIHJ = test: as above; format: cell-based; conditions: 37° C., 18 hours, read-out: Minimum Inhibitory Concentrations
Experimental: as §1

Escherichia coli K-12 R5 = test: as above; format: cell-based; conditions: K12R5, 18 h, read-out: Minimum Inhibitory Concentrations
Experimental: as §1

Escherichia coli K-12 = test: as above; format: cell-based; conditions: K12, 37° C., 18 hours, read-out: Minimum Inhibitory Concentrations
Experimental: as §1

[19] = system: resistant bacteria producing the 2"-nucleotidyltransferase; conditions: prior compounds; cited from earlier work
[20] = system: resistant bacteria producing the aminoglycoside 6'-acetyltransferase; conditions: cited from earlier work
[21] = system: resistant bacteria producing aminoglycoside 3'-phosphotransferase; conditions: cited from earlier work
[22] = LD50 upon intravenous injection in mice; conditions: mouse, in vivo, estimated
6'-acetyltransferase = conditions: cited from earlier work; for acetylation by a 6'-acetyltransferase: enzyme obtained from aminoglycoside-resistant strains, such as Pseudomonas aeruginosa GN315
[23] = Pseudomonas aeruginosa A3, nutrient agar, 37° C., 18 hours
[24] = Pseudomonas aeruginosa No. 12, nutrient agar, 37° C., 18 hours
[25] = Klebsiella pneumoniae 22 No. 3038, nutrient agar, 37° C., 18 hours
[26] = TI13, Pseudomonas aeruginosa TI-13, nutrient agar, 37° C., 18 hours
[27] = JR66/W677, Escherichia coli JR 66/W677, nutrient agar, 37° C., 18 hours

Row | Compound | MIC [1] [µg/mL] | MIC [2] [µg/mL] | MIC [3, 23] [µg/mL] | MIC [4] [µg/mL] | MIC [5] [µg/mL] | MIC [6] [µg/mL] | MIC [7] [µg/mL] | MIC [8] [µg/mL] | MIC [9, 24] [µg/mL] | MIC [12] [µg/mL] | MIC [13] [µg/mL] | MIC [15] [µg/mL] | MIC [16] [µg/mL] | MIC [17] [µg/mL] | MIC (Escherichia coli W 677) [µg/mL] | MIC [18] [µg/mL] | MIC (Escherichia coli NIHJ) [µg/mL] | MIC (Escherichia coli K-12 R5) [µg/mL] | MIC (Escherichia coli K-12) [µg/mL] | growth inhibition of resistant bacteria producing the 2"-nucleotidyltransferase [19] | other results
1 | NCCC(O)C(=O)NC1CC(N)C(OC2OC(CO)CCC2N)C(O)C1OC1OC(CO)C(O)C(N)C1O [AHB-DDKC, 1-N-(L-4-amino-2-hydroxybutyryl)-3',4'-dideoxykanamycin C] | 12.5 (≈ 22.6 µM) | 6.25 (≈ 11.3 µM) | 12.5 (≈ 22.6 µM) | 100 (≈ 181 µM) | 100 (≈ 181 µM) | 6.25 (≈ 11.3 µM) | 6.25 (≈ 11.3 µM) | 12.5 (≈ 22.6 µM) | 100 (≈ 181 µM) | 25 (≈ 45.2 µM) | 25 (≈ 45.2 µM) | 12.5 (≈ 22.6 µM) | 12.5 (≈ 22.6 µM) | 100 (≈ 181 µM) | 12.5 (≈ 22.6 µM) | 6.25 (≈ 11.3 µM) | 12.5 (≈ 22.6 µM) | 12.5 (≈ 22.6 µM) | 12.5 (≈ 22.6 µM) | – | MIC [10, 25]: 25 µg/mL (≈ 45.2 µM); MIC [11, 26]: 100 µg/mL (≈ 181 µM); MIC [14, 27]: 25 µg/mL (≈ 45.2 µM)
2 | NC1CC(O)C(CO)OC1OC1C(N)CC(N)C(OC2OC(CO)C(O)C(N)C2O)C1O (stereo not drawn) [3'-deoxykanamycin C] | – | – | – | – | – | – | – | – | – | – | – | – | – | – | – | – | – | – | – | not able to inhibit the growth | –
3 | NCC1CCC(N)C(OC2C(N)CC(N)C(OC3OC(CO)C(O)C(N)C3O)C2O)O1 (stereo not drawn) [3',4'-dideoxykanamycin B] | – | – | – | – | – | – | – | – | – | – | – | – | – | – | – | – | – | – | – | do not inhibit the growth | growth inhibition of resistant bacteria producing the aminoglycoside 6'-acetyltransferase [20]: do not inhibit the growth; activity against resistant bacteria producing aminoglycoside 3'-phosphotransferase [21]: active against the resistant bacteria
4 | NCCC(O)C(=O)NC1CC(N)C(OC2OC(CO)C(O)C(O)C2N)C(O)C1OC1OC(CO)C(O)C(N)C1O [AHB-KC, 1-N-(L-4-amino-2-hydroxybutyryl)-kanamycin C] | 12.5 (≈ 21.3 µM) | 3.13 (≈ 5.34 µM) | 12.5 (≈ 21.3 µM) | 50 (≈ 85.4 µM) | 100 (≈ 171 µM) | 6.25 (≈ 10.7 µM) | 6.25 (≈ 10.7 µM) | 12.5 (≈ 21.3 µM) | 50 (≈ 85.4 µM) | 12.5 (≈ 21.3 µM) | 25 (≈ 42.7 µM) | 6.25 (≈ 10.7 µM) | 12.5 (≈ 21.3 µM) | 100 (≈ 171 µM) | 12.5 (≈ 21.3 µM) | 3.13 (≈ 5.34 µM) | 6.25 (≈ 10.7 µM) | 6.25 (≈ 10.7 µM) | 12.5 (≈ 21.3 µM) | – | MIC [10, 25]: 12.5 µg/mL (≈ 21.3 µM); MIC [11, 26]: 50 µg/mL (≈ 85.4 µM); MIC [14, 27]: 25 µg/mL (≈ 42.7 µM); LD50 [22]: > 400 mg/kg
5 | NC1CC(N)C(OC2OC(CO)C(O)C(N)C2O)C(O)C1OC1OC(CO)C(O)C(O)C1N (stereo not drawn) [kanamycin C] | – | – | – | – | – | – | – | – | – | – | – | – | – | – | – | – | – | – | – | not able to inhibit the growth | inactivation by the 6'-acetyltransferase (6'-acetyltransferase; see co-pending applications): cannot be inactivated
6 | NC1CCC(CO)OC1OC1C(N)CC(N)C(OC2OC(CO)C(O)C(N)C2O)C1O (stereo not drawn) [3',4 '-dideoxykanamycin C, 3',4'-dideoxykanamycin C] | – | – | – | – | – | – | – | – | – | – | – | – | – | – | – | – | – | – | – | not able to inhibit the growth | –
7 | NCC[C@H](O)C(=O)N[C@@H]1C[C@H](N)[C@@H](O[C@H]2O[C@H](CN)[C@@H](O)[C@H](O)[C@H]2O)[C@H](O)[C@H]1O[C@H]1O[C@H](CO)[C@@H](O)[C@H](N)[C@H]1O [Amikacin, 1-N-(L-4-amino-2-hydroxybutyryl)-kanamycin A, reference compound] | 0.39 (≈ 0.666 µM) | < 0.2 | – | 100 (≈ 171 µM) | 6.25 (≈ 10.7 µM) | 0.39 (≈ 0.666 µM) | 0.78 (≈ 1.33 µM) | 0.78 (≈ 1.33 µM) | – | 1.56 (≈ 2.66 µM) | 0.78 (≈ 1.33 µM) | 0.39 (≈ 0.666 µM) | 0.78 (≈ 1.33 µM) | 12.5 (≈ 21.3 µM) | < 0.2 | 0.39 (≈ 0.666 µM) | 0.78 (≈ 1.33 µM) | 0.39 (≈ 0.666 µM) | 0.78 (≈ 1.33 µM) | – | acetylation by a 6'-acetyltransferase (6'-acetyltransferase): acetylated; MIC ([3]; Pseudomonas aeruginosa, A3, 18 h): 3.13 µg/mL (≈ 5.34 µM); MIC ([9]; Pseudomonas aeruginosa, NO.12, 18 h): 3.13 µg/mL (≈ 5.34 µM); MIC ([10]; Klebsiella pneumoniae, 22NO.3038, 18 h): 1.56 µg/mL (≈ 2.66 µM); MIC ([11]; Pseudomonas aeruginosa, TI13, 18 h): 3.13 µg/mL (≈ 5.34 µM); MIC ([14]; Escherichia coli, JR66/W677, 18 h): 1.56 µg/mL (≈ 2.66 µM)
8 | NCCC(O)C(=O)NC1CC(N)C(OC2OC(CN)C(O)C(O)C2N)C(O)C1OC1OC(CO)C(O)C(N)C1O [1-N-(L-4-amino-2-hydroxybutyryl)-kanamycin B] | – | – | – | – | – | – | – | – | – | – | – | – | – | – | – | – | – | – | – | – | acetylation by a 6'-acetyltransferase (6'-acetyltransferase): acetylated
9 | NCC1OC(OC2C(N)CC(N)C(OC3OC(CO)C(O)C(N)C3O)C2O)C(N)CC1O (stereo not drawn) [3'-deoxykanamycin B] | – | – | – | – | – | – | – | – | – | – | – | – | – | – | – | – | – | – | – | do not inhibit the growth | growth inhibition of resistant bacteria producing the aminoglycoside 6'-acetyltransferase [20]: do not inhibit the growth; activity against resistant bacteria producing aminoglycoside 3'-phosphotransferase [21]: active against the resistant bacteria
10 | NCCC(O)C(=O)NC1CC(N)C(OC2OC(CO)C(O)CC2N)C(O)C1OC1OC(CO)C(O)C(N)C1O [AHB-DKC, 1-N-(L-4-amino-2-hydroxybutyryl)-3'-deoxykanamycin C] | 3.13 (≈ 5.49 µM) | 12.5 (≈ 21.9 µM) | 6.25 (≈ 11 µM) | 50 (≈ 87.8 µM) | 100 (≈ 176 µM) | 6.25 (≈ 11 µM) | 6.25 (≈ 11 µM) | 12.5 (≈ 21.9 µM) | 50 (≈ 87.8 µM) | 12.5 (≈ 21.9 µM) | 6.25 (≈ 11 µM) | 6.25 (≈ 11 µM) | 12.5 (≈ 21.9 µM) | 50 (≈ 87.8 µM) | 6.25 (≈ 11 µM) | 3.13 (≈ 5.49 µM) | 6.25 (≈ 11 µM) | 6.25 (≈ 11 µM) | 6.25 (≈ 11 µM) | – | MIC [10, 25]: 6.25 µg/mL (≈ 11 µM); MIC [11, 26]: 50 µg/mL (≈ 87.8 µM); MIC [14, 27]: 12.5 µg/mL (≈ 21.9 µM); LD50 [22]: > 400 mg/kg

Reference: patent US4140849A, “Kanamycin C derivatives” (Zaidan Hojin Biseibutsu Kagaku Kenkyu Kai, priority 1977, dated 1979)
